According to ChEMBL document CHEMBL1201862, “PubChem BioAssay data set” (2004):
Activity calls are given as the source filed them.

What was measured:
[1] = target: T1, Calpain-2 catalytic subunit (Sus scrofa, UniProt P43367); assay: pig calpain II inhibitor potency, dose response, biochemical, fluorogenic peptide substrate (AID 1420); type: functional
T1 sequence (P43367 whole entry): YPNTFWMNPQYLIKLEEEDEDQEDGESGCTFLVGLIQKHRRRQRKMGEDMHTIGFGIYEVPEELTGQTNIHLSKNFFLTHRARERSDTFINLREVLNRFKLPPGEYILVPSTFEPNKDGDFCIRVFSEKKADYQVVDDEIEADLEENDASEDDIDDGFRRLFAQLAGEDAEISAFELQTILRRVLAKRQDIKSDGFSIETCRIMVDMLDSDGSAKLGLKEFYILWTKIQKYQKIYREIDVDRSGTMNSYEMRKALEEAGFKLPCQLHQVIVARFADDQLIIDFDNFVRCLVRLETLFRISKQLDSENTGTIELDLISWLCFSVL

[2] = target: Cytochrome P450 3A4 (Homo sapiens, UniProt P08684); conditions: Potency;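 note: confirmatory qHTS run detecting inhibitors and substrates of CYP3A4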
[3] = target: Prothrombin (Homo sapiens, UniProt P00734); assay: Thrombin 1536 HTS Dose Response Confirmation. [Related pubchem assays: 1046 (Thrombin 1536 HTS; hits were confirmed in this assay)]; type: functional
[4] = test system: BJ; assay: cytotoxicity toward BJ-TERT fibroblasts, dose response, cell-based, RAS-independent, luminescence (AID 1933); type: functional; conditions: Homo sapiens
[5] = cytotoxicity in HEK-293T cells, dose response, cytotoxicity control for TCR NF-kB inhibitor project, luminescence, T-cell screen hits (AID 489026); type: functional, cell-based;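 note: cells exposed to compound about 14 hours before the viability readout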
[6] = cytotoxicity toward DRD oncogenic fibroblasts, dose response, cell-based, non-viral oncogenic, luminescence (AID 1934); type: functional; conditions: Homo sapiens
[7] = test system: BJ; assay: cytotoxicity toward BJ-TERT-LT-ST fibroblasts, dose response, cell-based, RAS-independent, luminescence (AID 1935); type: functional; conditions: Homo sapiens;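 note: BJ fibroblasts immortalized with TERT plus LT and ST oncogenes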
[8] = test system: BJ; assay: cells; type: functional, cell-based; conditions: Homo sapiens
[9] = target: Induced myeloid leukemia cell differentiation protein Mcl-1 (Homo sapiens, UniProt Q07820); type: functional
[10] = Luminescence Cell-Based Dose Response HTS to Identify Inhibitors of 5'UTR Stem-Loop Driven Prion Protein mRNA Translation in H4 Neuroglioblastoma Cells. [Related pubchem assays: 1827 (Project Summary), 1813 (Primary HTS)]; type: functional
[11] = target: Large T antigen (Simian virus 40, UniProt P03070); type: functional, Betapolyomavirus macacae;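 note: Confirmatory-stage PubChem screen for compounds that inhibit SV40 T antigen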
[12] = inhibitors of firefly luciferase expression or activity, dose response, H4 neuroglioma cells, luminescence (AID 1990); type: functional, cell-based
[13] = target: FAD-linked sulfhydryl oxidase ALR (Homo sapiens, UniProt P55789); assay: inhibitors of human ALR sulfhydryl oxidase, dose response, biochemical, H2O2 detection, luminescence, cherry-pick (AID 493248)
[14] = inhibitors of SNCA 5'UTR-driven reporter translation, confirmation, H4 neuroglioma cells, luminescence (AID 1988); type: functional, cell-based
[15] = target: T2, Caspase-6 (Homo sapiens, UniProt P55212); assay: human caspase-6 inhibitors, dose response, biochemical, VEID-R110 fluorescence, cherry-pick (AID 720632)
T2 sequence (P55212 whole entry): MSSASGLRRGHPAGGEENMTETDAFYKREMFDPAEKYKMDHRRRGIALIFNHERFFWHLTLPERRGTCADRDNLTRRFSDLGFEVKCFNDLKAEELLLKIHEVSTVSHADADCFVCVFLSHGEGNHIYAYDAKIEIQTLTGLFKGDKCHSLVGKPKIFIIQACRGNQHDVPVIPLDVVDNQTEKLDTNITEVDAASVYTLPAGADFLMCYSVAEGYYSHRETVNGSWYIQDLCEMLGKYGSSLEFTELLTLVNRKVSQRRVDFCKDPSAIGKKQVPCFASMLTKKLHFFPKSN

Chain of Induced myeloid leukemia cell differentiation protein Mcl-1 (Q07820 whole entry): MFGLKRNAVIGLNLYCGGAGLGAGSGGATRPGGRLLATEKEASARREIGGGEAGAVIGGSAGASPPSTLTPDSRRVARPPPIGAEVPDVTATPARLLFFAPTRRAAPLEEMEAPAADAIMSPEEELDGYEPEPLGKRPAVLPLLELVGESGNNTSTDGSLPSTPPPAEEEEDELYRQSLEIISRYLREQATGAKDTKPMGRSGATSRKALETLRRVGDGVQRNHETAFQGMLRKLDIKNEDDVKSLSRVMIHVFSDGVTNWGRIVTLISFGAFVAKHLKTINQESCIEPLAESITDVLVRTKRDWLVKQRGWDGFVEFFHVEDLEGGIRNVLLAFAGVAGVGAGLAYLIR
Chain of Large T antigen (P03070 whole entry): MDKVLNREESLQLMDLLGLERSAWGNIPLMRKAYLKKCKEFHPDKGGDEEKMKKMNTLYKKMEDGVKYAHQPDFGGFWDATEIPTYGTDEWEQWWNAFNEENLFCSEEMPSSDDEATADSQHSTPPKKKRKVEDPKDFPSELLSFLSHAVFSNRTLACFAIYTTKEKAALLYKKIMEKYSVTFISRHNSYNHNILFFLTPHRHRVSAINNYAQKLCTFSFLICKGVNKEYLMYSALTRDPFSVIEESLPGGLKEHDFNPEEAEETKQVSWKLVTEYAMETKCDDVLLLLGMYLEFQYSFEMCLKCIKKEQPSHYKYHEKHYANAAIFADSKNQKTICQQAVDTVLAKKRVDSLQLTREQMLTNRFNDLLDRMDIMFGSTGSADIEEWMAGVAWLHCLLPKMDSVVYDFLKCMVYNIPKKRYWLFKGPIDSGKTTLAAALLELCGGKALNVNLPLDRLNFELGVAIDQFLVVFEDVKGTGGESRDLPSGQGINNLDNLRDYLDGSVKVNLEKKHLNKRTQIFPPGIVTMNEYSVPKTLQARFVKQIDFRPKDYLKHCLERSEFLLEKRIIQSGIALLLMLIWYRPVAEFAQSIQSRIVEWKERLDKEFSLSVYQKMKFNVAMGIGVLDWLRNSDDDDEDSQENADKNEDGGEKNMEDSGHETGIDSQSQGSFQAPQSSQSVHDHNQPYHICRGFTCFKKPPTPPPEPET
Chain of FAD-linked sulfhydryl oxidase ALR (P55789 whole entry): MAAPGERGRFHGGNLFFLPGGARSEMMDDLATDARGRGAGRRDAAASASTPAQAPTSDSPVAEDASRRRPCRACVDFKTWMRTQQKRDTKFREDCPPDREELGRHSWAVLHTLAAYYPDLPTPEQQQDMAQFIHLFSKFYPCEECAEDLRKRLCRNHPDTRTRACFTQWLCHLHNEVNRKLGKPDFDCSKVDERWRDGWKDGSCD
Chain of Cytochrome P450 3A4 (P08684 whole entry): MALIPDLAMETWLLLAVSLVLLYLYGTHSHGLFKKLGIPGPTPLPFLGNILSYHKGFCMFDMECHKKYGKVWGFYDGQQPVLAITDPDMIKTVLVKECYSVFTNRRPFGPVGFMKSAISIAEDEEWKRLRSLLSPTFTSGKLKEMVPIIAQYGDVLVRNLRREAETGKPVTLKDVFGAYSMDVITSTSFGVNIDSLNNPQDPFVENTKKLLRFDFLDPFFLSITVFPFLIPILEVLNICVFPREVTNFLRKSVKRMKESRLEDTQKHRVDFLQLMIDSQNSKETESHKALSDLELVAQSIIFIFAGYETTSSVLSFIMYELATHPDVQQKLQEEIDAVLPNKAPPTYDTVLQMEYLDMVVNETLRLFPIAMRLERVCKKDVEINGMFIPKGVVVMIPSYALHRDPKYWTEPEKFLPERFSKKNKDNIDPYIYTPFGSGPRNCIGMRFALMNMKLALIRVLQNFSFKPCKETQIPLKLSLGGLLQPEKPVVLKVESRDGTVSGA

Cn1c(N)c(C(=O)COC(=O)C2CCC(C(C)(C)C)CC2)c(=O)n(C)c1=O (stereo unspecified)
IC50 [1]: 10.4 µM (active)

Cc1ccccc1NC(=S)NCCC(c1ccccc1)c1ccccc1
IC50 [1]: 2.48 µM (not active)

Nc1nc(/C(=C/CC(=O)O)C(=O)NC2C(=O)N3C(C(=O)O)=CCSC23)cs1 (stereo unspecified)
AC50 [2]: 31.6 µM (inconclusive)

COc1cccc(NC(=S)N(CCCN2CCCC2)Cc2ccco2)c1
IC50 [3]: > 50 µM (inconclusive)

COCC(=O)n1nc(-c2ccc(C)cc2)nc1NCc1ccc(F)cc1
IC50 [3]: 0.502 µM (active)

C/C(=N\OCC(=O)NC12CC3CC(CC(C3)C1)C2)c1cc2ccccc2o1
IC50 [1]: 8.83 µM (not active)

CC(=O)n1nc(-c2ccc(C)cc2)nc1NCc1ccc(F)cc1
IC50 [3]: 0.373 µM (active)

Cc1ccc(NC(S)=NC(C)CCc2ccccc2)cc1C (stereo unspecified)
IC50 [1]: 17.3 µM (not active)

CCOc1ccc(N(CC(=O)Nc2ccccc2C)S(=O)(=O)c2c(C)noc2C)cc1
EC50 [4]: 5.06 µM (active) | IC50 [5]: > 80 µM (inactive) | EC50 [6]: 4.15 µM (active) | EC50 [7]: 16.9 µM (active) | EC50 [8]: 29.9 µM (active)

CCc1nn2c(=O)cc(COc3ccc(/C=C4\C(=N)N5N=C(C)SC5=NC4=O)cc3)nc2s1
IC50 [9]: 4.66 µM (active)

Nc1ccc(OC(=O)Nc2ccc(O)cc2)cc1
EC50 [10]: 11.7 µM (active) | IC50 [11]: 6.52 µM (active) | EC50 [12]: 11.2 µM (active) | AC50 [13]: 1.38 µM (active) | EC50 [14]: 9.76 µM (active) | AC50 [15]: 18.7 µM (active)

CC(C)C(=O)n1nc(-c2cccnc2)nc1NCc1cccs1
IC50 [3]: 0.006 µM (active)
